Measured values published in patent US20260365670A1, “EGFR INHIBITORS AND USES THEREOF” (DIZAL (JIANGSU) PHARMACEUTICAL CO., LTD., priority 2022, published 2026).
Where two headings read alike, the source gives them in different places.

Experiments:
EGFR L858R = target: T1, EGFR L858R (Homo sapiens, UniProt P00533, L858R); experiment: Inhibition of EGFR L858R biochemical enzymatic activity (HTRF); conditions: 1 mM ATP, 1 h, room temperature, read-out: IC50 (nM) @L858R
T1 construct: purchased Carna Bio
How it was run: (§1)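 Kinase activity is measured by HTRF detection of biotinylated TK substrate (1 μM) phosphorylation at 1 mM ATP. Incubation lasts 1 h at room temperature before an EDTA stop, and IC50 is fitted with a four-parameter logistic model.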

[1] = tested on: Ba/F3 cells expressing EGFR mutations; experiment: Cell proliferation assay, Ba/F3 cells expressing EGFR mutations (CellTiter-Glo, 72 hours); assay type: cell-based; conditions: Mus musculus, BaF3, 72 h, CellTiter-Glo
How it was run: (§2)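 GI50 is the concentration giving 50% proliferation inhibition. Growth for this was normalised to a baseline viability reading taken when compound was added, and to DMSO wells. PC-9 (500 cells/well) and mutant-EGFR Ba/F3 (5000 cells/well) are treated after overnight seeding in RPMI1640-based medium.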

EGFR Exon19Del/T790M = target: T2, EGFR Exon19Del/T790M (Homo sapiens, UniProt P00533, DEL746-750/T790M); experiment: Inhibition of EGFR Exon19Del/T790M biochemical enzymatic activity (HTRF); conditions: EGFR Del19-T790M, 1 mM ATP, 1 h, room temperature, read-out: IC50 (nM) @Del19-T790M
T2 construct: purchased Carna Bio
How it was run: as §1

EGFR Exon19Del = target: T3, EGFR Exon19Del (Homo sapiens, UniProt P00533, DEL746-750); experiment: Inhibition of EGFR Exon19Del biochemical enzymatic activity (HTRF); conditions: EGFR Del19, 1 mM ATP, 1 h, room temperature, read-out: IC50 @Del19
T3 construct: purchased Carna Bio
How it was run: as §1

EGFR wild type = target: T4, EGFR wild type (Homo sapiens, UniProt P00533); experiment: Inhibition of EGFR wild type biochemical enzymatic activity (HTRF); conditions: EGFR WT, 1 mM ATP, 1 h, room temperature, read-out: IC50 (nM) @WT
T4 construct: purchased Carna Bio
How it was run: as §1

EGFR (C797S L858R) = target: T5, EGFR (C797S L858R) (Homo sapiens, UniProt P00533, C797S/L858R); experiment: Inhibition of EGFR (C797S L858R) biochemical enzymatic activity (HTRF); conditions: EGFR L858-C797S, 1 mM ATP, 1 h, room temperature, read-out: IC50 (nM) @L858-C797S
T5 construct: purchased signalchem
How it was run: as §1

[2] = target: T6, EGFR[T790M/C797S/d746-750] (Homo sapiens, UniProt P00533, C797S/DEL746-750/T790M); experiment: Inhibition of EGFR[T790M/C797S/d746-750] biochemical enzymatic activity (HTRF); conditions: EGFR T790M-C797S-Del19, 1 mM ATP, 1 h, room temperature, read-out: IC50 (nM) @T790M - C797S - Del19
T6 construct: purchased Carna Bio
How it was run: as §1

EGFR (d746-750 C797S) = target: T7, EGFR (d746-750 C797S) (Homo sapiens, UniProt P00533, C797S/DEL746-750); experiment: Inhibition of EGFR (d746-750 C797S) biochemical enzymatic activity (HTRF); conditions: EGFR Del19-C797S, 1 mM ATP, 1 h, room temperature, read-out: IC50 (nM) @Del19-C797S
T7 construct: purchased signalchem
How it was run: as §1

PC-9 = experiment: Cell proliferation assay, PC-9 cells (CellTiter-Glo, 72 hours); assay type: cell-based; conditions: Homo sapiens, PC-9, 72 h, PC9 cells, CellTiter-Glo, read-out: PC9 GI50
How it was run: as §2

EGFR L858R/T790M = target: T8, EGFR L858R/T790M (Homo sapiens, UniProt P00533, L858R/T790M); experiment: Inhibition of EGFR L858R/T790M biochemical enzymatic activity (HTRF); conditions: EGFR L858R-T790M, 1 mM ATP, 1 h, room temperature, read-out: IC50 (nM) @L858R-T790M
T8 construct: purchased Carna Bio
How it was run: as §1

EGFR[T790M/C797S/L858R] = target: T9, EGFR[T790M/C797S/L858R] (Homo sapiens, UniProt P00533, C797S/L858R/T790M); experiment: Inhibition of EGFR[T790M/C797S/L858R] biochemical enzymatic activity (HTRF); conditions: EGFR T790M-C797S-L858R, 1 mM ATP, 1 h, room temperature, read-out: IC50 (nM) @T790M- C797S - L858R
T9 construct: purchased Carna Bio
How it was run: as §1

A-431 = experiment: Cell proliferation GI50, A-431 cells (Table 6); assay type: cell-based; conditions: Homo sapiens, A-431, A-431 cells
[3] = BaF3 cells, EGFR DEL19-C797S, read-out: DEL19-C797S/BaF3 GI50
[4] = BaF3 cells, EGFR DEL19-T790-C797S, read-out: DEL19-T790-C797S/BaF3 GI50
[5] = BaF3 cells, EGFR L858R, read-out: L858R/BaF3 GI50
[6] = BaF3 cells, EGFR L858R-C797S, read-out: L858R-C797S/BaF3 GI50
[7] = BaF3 cells, EGFR L858R-T790-C797S, read-out: L858R-T790-C797S/BaF3 GI50
[8] = BaF3 cells, EGFR L858R-T790M, read-out: L858R-T790M/BaF3 GI50
[9] = EGFR DEL19-T790M, read-out: DEL19-T790M GI50

T4 sequence (P00533 25-1210): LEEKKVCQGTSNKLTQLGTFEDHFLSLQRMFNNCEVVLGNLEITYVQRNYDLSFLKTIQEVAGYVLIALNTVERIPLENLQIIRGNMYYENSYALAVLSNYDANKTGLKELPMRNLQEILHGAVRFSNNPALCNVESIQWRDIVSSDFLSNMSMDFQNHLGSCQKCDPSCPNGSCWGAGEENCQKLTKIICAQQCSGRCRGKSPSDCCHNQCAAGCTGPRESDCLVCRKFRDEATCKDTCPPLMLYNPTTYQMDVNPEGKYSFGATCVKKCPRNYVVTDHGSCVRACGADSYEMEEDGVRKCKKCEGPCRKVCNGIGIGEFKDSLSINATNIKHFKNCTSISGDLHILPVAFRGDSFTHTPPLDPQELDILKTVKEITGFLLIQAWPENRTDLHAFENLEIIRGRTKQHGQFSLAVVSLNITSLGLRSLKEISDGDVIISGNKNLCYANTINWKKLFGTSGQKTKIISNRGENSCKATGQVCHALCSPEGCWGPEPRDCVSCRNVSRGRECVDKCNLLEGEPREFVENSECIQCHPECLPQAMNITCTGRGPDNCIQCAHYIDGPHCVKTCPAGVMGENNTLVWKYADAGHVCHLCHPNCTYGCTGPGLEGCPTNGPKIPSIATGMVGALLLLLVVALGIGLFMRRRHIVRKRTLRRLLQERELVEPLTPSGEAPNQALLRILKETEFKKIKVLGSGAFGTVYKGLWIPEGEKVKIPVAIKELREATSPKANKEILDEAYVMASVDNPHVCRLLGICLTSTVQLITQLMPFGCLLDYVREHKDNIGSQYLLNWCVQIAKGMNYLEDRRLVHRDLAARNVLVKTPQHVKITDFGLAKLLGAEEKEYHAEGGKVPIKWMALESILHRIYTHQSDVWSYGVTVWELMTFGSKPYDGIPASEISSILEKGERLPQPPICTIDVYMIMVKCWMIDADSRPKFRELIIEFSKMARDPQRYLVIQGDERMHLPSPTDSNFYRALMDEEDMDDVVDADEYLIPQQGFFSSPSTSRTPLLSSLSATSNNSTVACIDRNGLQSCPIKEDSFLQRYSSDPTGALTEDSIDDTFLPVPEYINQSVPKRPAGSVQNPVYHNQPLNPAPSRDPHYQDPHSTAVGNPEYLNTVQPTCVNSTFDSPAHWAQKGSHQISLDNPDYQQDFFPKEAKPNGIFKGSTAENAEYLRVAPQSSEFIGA
T9 sequence (P00533 25-1210 T790M/C797S/L858R): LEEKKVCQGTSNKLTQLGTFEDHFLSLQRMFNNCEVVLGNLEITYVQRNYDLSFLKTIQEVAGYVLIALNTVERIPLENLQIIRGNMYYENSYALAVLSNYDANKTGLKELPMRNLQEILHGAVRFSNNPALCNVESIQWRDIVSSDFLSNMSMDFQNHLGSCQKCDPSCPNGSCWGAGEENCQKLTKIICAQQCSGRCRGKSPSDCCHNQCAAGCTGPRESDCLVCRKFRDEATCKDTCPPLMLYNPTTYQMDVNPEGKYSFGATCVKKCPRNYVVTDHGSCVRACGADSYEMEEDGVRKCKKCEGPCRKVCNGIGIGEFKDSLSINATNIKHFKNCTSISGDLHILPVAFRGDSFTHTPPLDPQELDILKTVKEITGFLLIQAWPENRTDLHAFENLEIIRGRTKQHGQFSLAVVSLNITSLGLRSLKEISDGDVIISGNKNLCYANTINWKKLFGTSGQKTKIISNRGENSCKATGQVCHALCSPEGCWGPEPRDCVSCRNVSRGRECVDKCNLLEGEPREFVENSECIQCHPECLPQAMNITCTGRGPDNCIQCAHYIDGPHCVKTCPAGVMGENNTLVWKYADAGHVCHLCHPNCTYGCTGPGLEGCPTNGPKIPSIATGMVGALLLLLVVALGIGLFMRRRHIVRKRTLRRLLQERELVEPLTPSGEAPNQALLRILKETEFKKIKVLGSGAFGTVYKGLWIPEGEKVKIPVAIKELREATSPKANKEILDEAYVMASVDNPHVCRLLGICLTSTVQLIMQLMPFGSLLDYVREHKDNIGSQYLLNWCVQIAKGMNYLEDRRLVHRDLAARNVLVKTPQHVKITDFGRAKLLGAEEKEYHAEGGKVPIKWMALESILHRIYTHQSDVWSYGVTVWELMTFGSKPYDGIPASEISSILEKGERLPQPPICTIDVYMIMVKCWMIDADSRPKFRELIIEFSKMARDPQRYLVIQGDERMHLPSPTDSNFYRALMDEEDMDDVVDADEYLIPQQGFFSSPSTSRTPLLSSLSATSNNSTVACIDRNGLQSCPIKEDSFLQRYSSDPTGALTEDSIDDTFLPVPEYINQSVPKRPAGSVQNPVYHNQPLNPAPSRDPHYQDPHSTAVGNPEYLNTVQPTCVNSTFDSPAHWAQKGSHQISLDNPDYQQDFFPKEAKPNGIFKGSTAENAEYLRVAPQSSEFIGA
T1 sequence (P00533 25-1210 L858R): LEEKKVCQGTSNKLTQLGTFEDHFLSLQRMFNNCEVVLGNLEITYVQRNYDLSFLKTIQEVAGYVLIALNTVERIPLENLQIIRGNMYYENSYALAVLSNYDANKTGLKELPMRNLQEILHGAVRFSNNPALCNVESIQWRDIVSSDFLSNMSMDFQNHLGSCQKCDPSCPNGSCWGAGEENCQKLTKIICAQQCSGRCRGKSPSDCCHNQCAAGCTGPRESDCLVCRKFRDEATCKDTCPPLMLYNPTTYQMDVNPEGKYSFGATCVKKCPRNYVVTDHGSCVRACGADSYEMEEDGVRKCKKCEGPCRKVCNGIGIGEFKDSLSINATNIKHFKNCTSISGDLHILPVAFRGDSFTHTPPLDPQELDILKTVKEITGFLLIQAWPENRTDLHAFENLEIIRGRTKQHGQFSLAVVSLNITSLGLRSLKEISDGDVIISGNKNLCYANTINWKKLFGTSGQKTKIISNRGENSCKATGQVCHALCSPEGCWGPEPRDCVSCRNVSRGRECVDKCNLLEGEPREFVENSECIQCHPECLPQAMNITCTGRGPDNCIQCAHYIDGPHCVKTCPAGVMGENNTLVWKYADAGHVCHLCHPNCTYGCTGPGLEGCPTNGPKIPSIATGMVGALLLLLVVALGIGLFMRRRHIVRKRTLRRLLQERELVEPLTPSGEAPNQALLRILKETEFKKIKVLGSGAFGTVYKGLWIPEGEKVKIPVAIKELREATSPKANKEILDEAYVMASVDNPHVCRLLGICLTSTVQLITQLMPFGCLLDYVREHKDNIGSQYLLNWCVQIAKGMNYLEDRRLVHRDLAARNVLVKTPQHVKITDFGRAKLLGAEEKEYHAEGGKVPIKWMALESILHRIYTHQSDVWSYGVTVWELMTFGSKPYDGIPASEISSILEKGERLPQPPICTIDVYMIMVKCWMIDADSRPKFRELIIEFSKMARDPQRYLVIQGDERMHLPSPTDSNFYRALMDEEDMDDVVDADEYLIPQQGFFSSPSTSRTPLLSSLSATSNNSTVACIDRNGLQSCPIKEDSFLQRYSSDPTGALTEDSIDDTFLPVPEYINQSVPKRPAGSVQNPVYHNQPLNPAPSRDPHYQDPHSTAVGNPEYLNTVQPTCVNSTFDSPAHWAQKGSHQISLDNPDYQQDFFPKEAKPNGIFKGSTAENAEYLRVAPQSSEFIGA
T7 sequence (P00533 with tags, fused parts or gaps DEL746-750/C797S limits assumed): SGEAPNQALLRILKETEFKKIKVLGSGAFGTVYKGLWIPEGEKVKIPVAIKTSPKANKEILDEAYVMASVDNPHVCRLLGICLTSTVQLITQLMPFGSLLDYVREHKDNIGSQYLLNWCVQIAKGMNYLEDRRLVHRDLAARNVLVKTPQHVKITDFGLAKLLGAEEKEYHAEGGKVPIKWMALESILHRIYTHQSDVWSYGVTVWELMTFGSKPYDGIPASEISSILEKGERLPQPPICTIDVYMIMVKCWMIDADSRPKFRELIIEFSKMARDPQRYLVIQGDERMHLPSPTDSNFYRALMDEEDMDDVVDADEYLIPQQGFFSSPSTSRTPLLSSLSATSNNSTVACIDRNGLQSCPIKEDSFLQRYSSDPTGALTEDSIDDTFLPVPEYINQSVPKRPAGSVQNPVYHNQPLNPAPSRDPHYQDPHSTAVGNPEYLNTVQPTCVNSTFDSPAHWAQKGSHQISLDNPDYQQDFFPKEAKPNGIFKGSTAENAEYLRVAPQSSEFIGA
T3 sequence (P00533 with tags, fused parts or gaps DEL746-750 limits assumed): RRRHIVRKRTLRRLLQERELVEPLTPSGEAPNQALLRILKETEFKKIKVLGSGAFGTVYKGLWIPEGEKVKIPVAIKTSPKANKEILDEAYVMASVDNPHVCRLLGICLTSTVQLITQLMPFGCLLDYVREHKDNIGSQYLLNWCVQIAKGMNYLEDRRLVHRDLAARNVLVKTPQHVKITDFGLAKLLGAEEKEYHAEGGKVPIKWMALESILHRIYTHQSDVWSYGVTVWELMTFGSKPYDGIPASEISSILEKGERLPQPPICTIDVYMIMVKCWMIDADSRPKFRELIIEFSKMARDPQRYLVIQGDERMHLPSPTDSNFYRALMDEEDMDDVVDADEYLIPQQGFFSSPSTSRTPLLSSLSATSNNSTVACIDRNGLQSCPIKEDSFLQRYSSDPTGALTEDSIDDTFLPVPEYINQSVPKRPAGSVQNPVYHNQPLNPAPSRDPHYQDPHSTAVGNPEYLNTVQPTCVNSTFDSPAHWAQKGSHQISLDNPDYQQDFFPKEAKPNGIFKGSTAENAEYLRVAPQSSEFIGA

| SMILES | IC50 (EGFR L858R) | GI50 [1, 3] | GI50 [1, 4] | GI50 [1, 5] | GI50 [1, 6] | GI50 [1, 7] | GI50 [1, 8] | GI50 [1, 9] | IC50 (EGFR Exon19Del/T790M) | IC50 (EGFR Exon19Del) | IC50 (EGFR wild type) | IC50 (EGFR (C797S L858R)) | IC50 [2] | IC50 (EGFR (d746-750 C797S)) | GI50 (PC-9) | IC50 (EGFR L858R/T790M) | IC50 (EGFR[T790M/C797S/L858R]) | GI50 (A-431) |
| --- | --- | --- | --- | --- | --- | --- | --- | --- | --- | --- | --- | --- | --- | --- | --- | --- | --- | --- |
| Cn1ncc2c1OCCN1CCCC(C)(C1)n1c(nc3ccc(N4CCOCC4)cc31)NC(=O)c1cc-2c(=O)n(C)c1 (stereo not drawn) [Example A10, 1,15,21-trimethyl-5-(morpholin-4-yl)-23-oxa-2,9,11,15,20,21,26-heptaazahexacyclo[24.3.1.1^{13,17}.0^{2,10}.0^{3,8}.0^{18,22}]hentriaconta-3,5,7,9,13,17(31),18(22),19-octaene-12,16-dione] | 2150 nM | 33 nM | 368 nM | 309 nM | 291 nM | 260 nM | 219 nM | 323 nM | 164 nM | 189 nM | > 5000 nM | 1950 nM | 166 nM | 173 nM | 128 nM | 2630 nM | 4400 nM | 5140 nM |
| Cn1ncc2c1OCCN1CC(CCC1(C)C)n1c(nc3ccc(N4CCOCC4)cc31)NC(=O)c1cc-2c(=O)n(C)c1 (stereo not drawn) [Example A12, 15,21,27,27-Tetramethyl-5-(morpholin-4-yl)-23-oxa-2,9,11,15,20,21,26-heptaazahexacyclo[24.3.1.1^{13,17}.0^{2,10}.0^{3,8}.0^{18,22}]hentriaconta-3,5,7,9,13,17(31),18(22),19-octaene-12,16-dione] | 482 nM | 39 nM | 265 nM | 72 nM | 159 nM | 122 nM | 116 nM | 197 nM | 89 nM | 144 nM | > 5000 nM | 389 nM | 105 nM | 119 nM | 149 nM | 476 nM | 486 nM | 3130 nM |
| Cn1ncc2c1OCCN1CCCCC(C)(C1)n1c(nc3ccc(N4CCOCC4)cc31)NC(=O)c1cc-2c(=O)n(C)c1 (stereo not drawn) [Example A13, 1,15,21-Trimethyl-5-(morpholin-4-yl)-23-oxa-2,9,11,15,20,21,26heptaazahexacyclo[24.4.1.1^{13,17}.0^{2,10}.0^{3,8}.0^{18,22}]dotriac onta-3,5,7,9,13,17(32),18(22),19-octaene-12,16-dione] | > 5000 nM | 148 nM | 192 nM | 234 nM | 232 nM | 280 nM | 411 nM | 192 nM | 757 nM | 932 nM | > 5000 nM | > 5000 nM | 728 nM | 780 nM | 292 nM | > 5000 nM | > 5000 nM | 357 nM |
| CCn1cc2cc(c1=O)-c1cnn(C)c1OCCC[C@@H](C)Cn1c(nc3ccc(N4CCN(C)CC4)cc31)NC2=O [Example A14, (11R)-26-Ethyl-5,11-dimethyl-16-(4-methylpiperazin-1-yl)-7-oxa-4,5,13,20,22,26-hexaazapentacyclo[22.3.1.0^{2,6}.0^{13,21}.0^{14,19}]octacosa-1(28),2(6),3,14,16,18,20,24-octaene-23,27-dione] | > 5000 nM | 57 nM | 356 nM | 305 nM | 188 nM | 459 nM | 866 nM | 462 nM | 132 nM | 144 nM | > 5000 nM | > 5000 nM | 59 nM | 63 nM | 152 nM | > 5000 nM | > 5000 nM | 2240 nM |
| CN1CCN(c2ccc3nc4n(c3c2)CC2(CCCOc3c(cnn3C)-c3cc(cn(C)c3=O)C(=O)N4)CC2)CC1 [Example A18, 5′,26′-dimethyl-16′-(4-methylpiperazin-1-yl)-7′-oxa-4′,5′,13′,20′,22′,26′-hexaazaspiro[cyclopropane-1,11′-pentacyclo[22.3.1.0^{2,6}.0^{13,21}.0^{14,19}]octacosan]-1′(28′),2′(6′),3′,14′,16′,18′,20′,24′-octaene-23′,27′-dione] | 1370 nM | 52.9 nM | 246 nM | 194 nM | 169 nM | 309 nM | 249 nM | 187 nM | 41 nM | 54 nM | > 5000 nM | 929 nM | 44 nM | 91 nM | 565 nM | 1140 nM | 1720 nM | 377 nM |
| CC1CCCCOc2c(cnn2C)-c2cc(cn(C)c2=O)C(=O)Nc2nc3ccc(N4CCN(C)CC4)cc3n21 (stereo not drawn) [Example A19, 5,12,26-Trimethyl-16-(4-methylpiperazin-1-yl)-7-oxa-4,5,13,20,22,26-hexaazapentacyclo[22.3.1.0^{2,6}.0^{13,21}.0^{14,19}]octacosa-1(28),2(6),3,14,16,18,20,24-octaene-23,27-dione] | 625 nM | 6.6 nM | 113 nM | 147 nM | 98 nM | 246 nM | 85 nM | 85 nM | 29 nM | 22 nM | > 5000 nM | 283 nM | 16 nM | 19 nM | 856 nM | 632 nM | 214 nM | 1340 nM |
